Molecules are shown by their SMILES. Values after ≈ are worked out from the molar mass of the structure shown.

The source of these data is patent publication US10004702B2, “Linear guanidine derivatives, methods of preparation and uses thereof” (LEAD DISCOVERY SIENA S.R.L., priority 2014, dated 2018).

Assay type in all cases: cell-based
In assay [1] the test system is Staphylococcus aureus ATCC 25923. In words: Bactericidal activity (MBC). The note with it: ATCC25923.
Another assay relates to Klebsiella pneumoniae B2. Description: MIC against resistant clinical isolates. The settings on record: COL-R. The procedure: (§1) Bacterial strains were obtained from the ATCC or CCUG culture collections or present in the authors' collection of clinical isolates. Compounds were re-suspended in dimethyl sulfoxyde (DMSO) at a final concentration of 10 mg/ml and subsequently diluted in the culture medium. The minimum inhibitory concentrations (MICs) of the compounds of the invention were determined using the microdilution broth method using Mueller-Hinton broth as recommended by the Clinical Laboratory Standards Institute (CLSI [11]). Bacterial inoculum was 5×10^4 CFU/well. MICs were recorded after 18-24 hours incubation at 35-37° C.
(§2) The Antibacterial activity of compound 28 was also tested on a panel of Gram-negative and Gram-positive clinical isolates, showing various antimicrobial susceptibility profiles (Table 4). The class of drugs for which the isolate was resistant to is indicated in column 2 (PEN, penicillins; ES-CEPH, expanded-spectrum cephalosporins; CARB, carbapenems; AZT; aztreonam; AG, aminoglycosides; FQ, fluoroquinolones; SXT, trimethoprim/sulfamethoxazole; FOS, fosfomycin; GLY, glycopeptides; LNZ, linezolid; COL-R, colistin resistant; COL-S colistin sensitive; PDR, poly-drug resistant).

In assay [2] the test system is Staphylococcus aureus ATCC 43300 (MRSA). In words: MIC against resistant clinical isolates. The settings on record: resistance profile PEN. The procedure: as §1, §2
Assay [3] has as its system Klebsiella pneumoniae BO4. Description: MIC against resistant clinical isolates. The settings on record: COL-R. The method, then:
as §1, §2

Assay [4] relates to Staphylococcus warneri SI-5/2011. In words: MIC against resistant clinical isolates. The settings on record: SI5/2011, resistance profile PEN, AG. The procedure: as §1, §2

The term MBC denotes the smallest concentration meeting the test's criterion for killing. The low end stands for greater bactericidal potency, the high end for weaker bactericidal potency. A word on the MIC: it is the lowest concentration found to suppress growth. A lower MIC goes with a more susceptible organism. Compound `N=C(N)NCCCCCCCCN(CCCCCCCCNC(=N)NCC1CC1)C(=O)N(CCCCCCCCNC(=N)N)CCCCCCCCNC(=N)NCC1CC1` [Compound 28, 1,3-bis(8-(3-(cyclopropylmethyl)guanidino)octyl)-1,3-bis(8-guanidinooctyl)urea] came in with an MBC in assay [1] of 2 mg/L (≈ 2.37 µM). Further, the MIC against Klebsiella pneumoniae B2 was found to be 4 mg/L (≈ 4.73 µM); in assay [2], 4 mg/L (≈ 4.73 µM); in assay [3] it was 8 mg/L (≈ 9.46 µM); in assay [4], 2 mg/L (≈ 2.37 µM).
